The target in this test is Histone-lysine N-methyltransferase SUV39H2 (Human, UniProt Q9H5I1). Nature of the test: Suv 39H2 Assay. As to the method:
Assay buffer (4 μL) was added into all the wells, including test compound and control wells (except for Sinefungin control wells), using the Multidrop Combi. The plate was centrifuged at 1000 rpm for 1 min. […] SUV39H2 (8 μL, final conc: optimized for each lot of the enzyme based on specific activity) was added by using the Multidrop Combi. The assay plate was centrifuged at 1000 rpm for 1 min. Assay buffer was used as background control, and incubated at room temperature for 3 hours. The reaction was stopped with 20 μL of 2.5 mg/mL Streptavidin SPA beads (final conc. 50 μg/well) in buffer using the Multidrop Combi and centrifuged for 1 min. The plate was loaded into the Trilux-Microbeta counter and a delayed read of 10 hours was made. The radioactive signal was measured at 1 min/well. Sinefungin and the internal standard compound were used as tool compounds to determine assay performance.

Sequence of Histone-lysine N-methyltransferase SUV39H2 (Q9H5I1 whole entry): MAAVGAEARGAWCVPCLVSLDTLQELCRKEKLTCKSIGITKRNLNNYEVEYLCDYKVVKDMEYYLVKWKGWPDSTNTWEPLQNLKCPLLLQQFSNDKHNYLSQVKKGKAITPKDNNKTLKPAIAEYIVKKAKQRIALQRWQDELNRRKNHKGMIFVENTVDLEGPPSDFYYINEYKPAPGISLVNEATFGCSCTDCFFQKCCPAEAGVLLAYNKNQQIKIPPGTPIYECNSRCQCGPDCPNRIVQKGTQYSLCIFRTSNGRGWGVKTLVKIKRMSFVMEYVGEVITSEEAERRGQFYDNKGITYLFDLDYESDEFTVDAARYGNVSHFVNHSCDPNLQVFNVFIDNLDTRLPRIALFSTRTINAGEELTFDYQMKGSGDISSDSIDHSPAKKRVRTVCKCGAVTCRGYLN

With `COc1cc(CO)c(-c2cn3ccc(N4CCN(S(=O)(=O)C(C)C)CC4)cc3n2)cc1Cl` [US10508109, Example 178], the midpoint of inhibition, the IC50, lay at 14.3 nM. That is a double-digit nanomolar value.
For `COc1cc(CO)c(-c2cn3ccc(N4CCN(CCNC(=O)OC(C)(C)C)CC4)cc3n2)cc1Cl` [US10508109, Example 28] the value was 21 nM.
In turn, `COc1cc(CO)c(-c2cn3ccc(OC4CCN(S(=O)(=O)c5cccs5)CC4)cc3n2)cc1Cl` [US10508109, Example 280] showed an IC50 of 71.1 nM. Against the preceding compound, the IC50 is about 3.4-fold higher.
For `COc1cc(CO)c(-c2cn3ccc(N4CCN(S(=O)(=O)Cc5ccccc5)CC4)cc3n2)cc1Cl` [US10508109, Example 179] the value was 32.2 nM.
For `COc1cc(CO)c(-c2cn3ccc(N4CCC(NC(N)=O)C4)cc3n2)cc1Cl` (stereo unspecified) [US10508109, Example 38] the value was 4.11 nM; for `COc1cc(CO)c(-c2cn3ccc(N4CCC(NS(=O)(=O)N(C)C)CC4)cc3n2)cc1Cl` [US10508109, Example 181], 13.9 nM; for `COc1cc(CO)c(-c2cn3ccc(N4CCC(N)CC4)nc3n2)cc1Cl` [US10508109, Example 42], 79 nM.
For `COc1cc(CO)c(-c2cn3ccc(C4=CCN(CCN5CCCCC5)CC4)cc3n2)cc1Cl` [US10508109, Example 147] the value was 29.5 nM.
For `COc1cc(CO)c(-c2cn3ccc(N4CC[C@H](N)C4)cc3n2)cc1Cl` [US10508109, Example 47], it took 8.29 nM to reach half-maximal inhibition (IC50).
With `COc1cc(CO)c(-c2cn3ccc(N4CCC(N5CCCS5(=O)=O)CC4)cc3n2)cc1Cl` [US10508109, Example 182], half-maximal inhibition (IC50) was put at 6.97 nM.
For `COc1cc(CO)c(-c2cn3ccc(N(C)CCNC(=O)OC(C)(C)C)cc3n2)cc1Cl` [US10508109, Example 48] the value was 12.4 nM; for `COc1cc(CO)c(-c2cn3ccc(N4CCN(CCO)CC4)cc3n2)cc1Cl` [US10508109, Example 43], 8.54 nM.
Take `CCCS(=O)(=O)NC1CCN(c2ccn3cc(-c4cc(Cl)c(OC)cc4CO)nc3c2)CC1` [US10508109, Example 174]: it took 10.4 nM to reach half-maximal inhibition (IC50).
For `COc1cc(CO)c(-c2cn3ccc(N4CCC(NC(C)=O)C4)cc3n2)cc1Cl` (stereo unspecified) [US10508109, Example 37] the value was 4.35 nM; for `COc1cc(CO)c(-c2cn3ccc(N4CCC(NC(=O)CCNC(=O)OC(C)(C)C)C4)nc3n2)cc1Br` (stereo unspecified) [US10508109, Example 65], 14 nM.
`COc1cc(CO)c(-c2cn3ccc(N4CCN(P(=O)(CO)OC)CC4)cc3n2)cc1Cl` (stereo unspecified) [US10508109, Example 203] came in with an IC50 of 1.77 nM.

These data come from BindingDB's records for patent US10508109 (ONCOTHERAPY SCIENCE, INC., 2019).
